According to patent US12599672B2, “KRAS proteolysis targeting chimeras” (PAQ Therapeutics Inc., priority 2023, dated 2026):

What was measured:
Assay type in all cases: cell-based
KRAS G12D = target: T1, KRAS G12D (Homo sapiens, UniProt P01116, G12D); assay: KRAS G12D HiBit assay; settings: AsPc-1-KRAS (G12D)-HiBit-KI cell, compound treatment for 24 hours; for DC50: absolute DC50
T1 construct: AsPc-1-KRAS (G12D)-HiBit-KI cell (Pharmaron); host or cells: AsPc-1-KRAS (G12D)-HiBit-KI cells (HiBiT knock-in at the endogenous KRAS locus)
T1 sequence (P01116 1-188 isoform P01116-2 G12D): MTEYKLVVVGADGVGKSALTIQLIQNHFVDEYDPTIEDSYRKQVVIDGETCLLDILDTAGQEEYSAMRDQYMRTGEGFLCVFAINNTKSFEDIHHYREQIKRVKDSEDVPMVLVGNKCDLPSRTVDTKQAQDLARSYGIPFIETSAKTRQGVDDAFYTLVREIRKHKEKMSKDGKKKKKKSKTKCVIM
How it was run: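 HiBiT luminescence, detected by adding lytic buffer, substrate and LgBiT protein, served as the KRAS G12D read-out. Compounds, serially diluted 3-fold over 10 points from 0.3 mM DMSO stock, were on cells for 24 h; percent inhibition normalized to cells given 0.1% DMSO only.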

KRAS G12V = target: T2, KRAS G12V (Homo sapiens, UniProt P01116, G12V); assay: KRAS G12V HiBit assay; settings: SW620-KRAS (G12V)-HiBit-KI cells, compound treatment for 24 hours, class symbols
T2 construct: SW620-KRAS (G12V)-HiBit-KI cell (Pharmaron); host or cells: SW620-KRAS (G12V)-HiBit-KI cells (HiBiT knock-in at the endogenous KRAS locus)
T2 sequence (P01116 1-188 isoform P01116-2 G12V): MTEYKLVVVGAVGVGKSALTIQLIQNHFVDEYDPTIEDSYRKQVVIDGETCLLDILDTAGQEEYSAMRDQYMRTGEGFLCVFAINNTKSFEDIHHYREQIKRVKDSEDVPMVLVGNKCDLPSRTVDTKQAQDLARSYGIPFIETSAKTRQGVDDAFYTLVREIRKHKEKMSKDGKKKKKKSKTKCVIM
How it was run: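 Luminescence from lytic Nano-Glo HiBiT detection with LgBiT read KRAS G12V levels after 24 h compound exposure. Dilutions were 10-point, 3-fold, from a 0.3 mM DMSO stock. Degradation activity was normalised to cells given 0.1% DMSO alone.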

KRAS = target: T3, KRAS (Homo sapiens, UniProt P01116); assay: KRASamp MSD assay; settings: KE39 (KRAS amplified) cells, treated with test compounds for 24 hr, MSD readout of KRAS degradation
T3 construct: endogenous in cells; host or cells: KE39 (KRAS amplified) cells
T3 sequence (P01116 1-188 isoform P01116-2): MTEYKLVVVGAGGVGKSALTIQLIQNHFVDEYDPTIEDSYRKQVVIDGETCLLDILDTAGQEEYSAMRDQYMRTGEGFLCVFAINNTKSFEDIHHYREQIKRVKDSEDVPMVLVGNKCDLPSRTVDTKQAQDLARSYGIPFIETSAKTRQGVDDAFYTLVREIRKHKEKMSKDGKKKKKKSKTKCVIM
How it was run: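 Degradation DC50 derived by curve fitting, with KRAS levels quantified by MSD electrochemiluminescence (capture/detection antibodies, recombinant WT KRAS standard). Lysates prepared from KE39 cells (KRAS amplified) exposed to test compounds for 24 hr.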

[1] = numeric bounds given in place of class symbols

SMILES	DC50 (KRAS G12D; class symbols) [nM]	Dmax (KRAS G12D; class symbols) [%]	DC50 (KRAS G12V) [nM]	DC50 (KRAS) [nM]	DC50 (KRAS G12D; [1]) [nM]
CCc1c(F)ccc2cc(O)cc(-c3ncc4c(N5CCC[C@@](C)(O)C5)nc(OC[C@@]56CCCN5[C@H](COC(=O)N5CCC(CN7CCN(c8ccc9c(c8)n(C)c(=O)n9C8CCC(=O)NC8=O)CC7)CC5)CC6)nc4c3F)c12 (stereo partly drawn) [Compound 95, [(3S,8S)-8-[[7-(8-ethyl-7-fluoro-3-hydroxy-1-naphthyl)-8-fluoro-4-[(3R)-3-hydroxy-3-methyl-1-piperidyl]pyrido[4,3-d]pyrimidin-2-yl]oxymethyl]-1,2,3,5,6,7-hexahydropyrrolizin-3-yl]methyl4-[[4-[1-(2,6-dioxo-3-piperidyl)-3-methyl-2-oxo-benzimidazol-5-yl]piperazin-1-yl]methyl]piperidine-1-carboxylate]	< 100	> 50	< 10	< 1	–
CCc1c(F)ccc2cc(O)cc(-c3ncc4c(N5CCC[C@@](C)(O)C5)nc(OC[C@@]56CCCN5[C@H](COC(=O)N5CCC(OCCC#Cc7ccc8c(c7)n(C)c(=O)n8C7CCC(=O)NC7=O)CC5)CC6)nc4c3F)c12 (stereo partly drawn) [Compound 371, ((3S,7aS)-7a-(((7-(8-ethyl-7-fluoro-3-hydroxynaphthalen-1-yl)-8-fluoro-4-((R)-3-hydroxy-3-methylpiperidin-1-yl)pyrido[4,3-d]pyrimidin-2-yl)oxy)methyl)hexahydro-1H-pyrrolizin-3-yl)methyl 4-((4-(1-(2,6-dioxopiperidin-3-yl)-3-methyl-2-oxo-2,3-dihydro-1H-benzo[d]imidazol-5-yl)but-3-yn-1-yl)oxy)piperidine-1-carboxylate]	< 100	–	< 10	1 to 10	–
C#Cc1c(F)ccc2cccc(-c3ncc4c(N5CCC[C@@](C)(O)C5)nc(OCC5(CN6CCC7(CC6)CN(c6ccc8c(c6)n(C)c(=O)n8C6CCC(=O)NC6=O)C7)CC5)nc4c3F)c12 (stereo partly shown) [Compound 40]	> 300	–	> 100	≥ 10	–
CCc1c(F)ccc2cc(O)cc(-c3ncc4c(N5CCC[C@@](C)(O)C5)nc(OC[C@]56CCCN5[C@H](COC(=O)NC5CCCN(c7cccc8c7n(C)c(=O)n8C7CCC(=O)NC7=O)C5)CC6)nc4c3F)c12 (stereo partly drawn) [Compound 312, ((3S,7aR)-7a-(((7-(8-ethyl-7-fluoro-3-hydroxynaphthalen-1-yl)-8-fluoro-4-((R)-3-hydroxy-3-methylpiperidin-1-yl)pyrido[4,3-d]pyrimidin-2-yl)oxy)methyl)hexahydro-1H-pyrrolizin-3-yl)methyl (1-(1-(2,6-dioxopiperidin-3-yl)-3-methyl-2-oxo-2,3-dihydro-1H-benzo[d]imidazol-4-yl)piperidin-3-yl)carbamate]	–	–	10 to 100	≥ 10	> 100
C#Cc1c(F)ccc2cc(O)cc(-c3ncc4c(N5CCC[C@@](C)(O)C5)nc(OCC5(CN6CCC7(CC6)CC(N6CCN(c8cccc9c8n(C)c(=O)n9C8CCC(=O)NC8=O)CC6)C7)CC5)nc4c3F)c12 (stereo partly shown) [Compound 71]	< 100	–	< 10	< 1	–
CCc1c(F)ccc2cc(O)cc(-c3ncc4c(N5CC[C@H](O)C5)nc(OC[C@@]56CCCN5[C@H](COC(=O)N5CCC7(CC5)CC(N5CCC(c8ccc9c(c8)n(C)c(=O)n9C8CCC(=O)NC8=O)CC5)C7)CC6)nc4c3F)c12 (stereo partly drawn) [Compound 349, ((3S,7aS)-7a-(((7-(8-ethyl-7-fluoro-3-hydroxynaphthalen-1-yl)-8-fluoro-4-((S)-3-hydroxypyrrolidin-1-yl)pyrido[4,3-d]pyrimidin-2-yl)oxy)methyl)hexahydro-1H-pyrrolizin-3-yl)methyl 2-(4-(1-(2,6-dioxopiperidin-3-yl)-3-methyl-2-oxo-2,3-dihydro-1H-benzo[d]imidazol-5-yl)piperidin-1-yl)-7-azaspiro[3.5]nonane-7-carboxylate]	–	–	10 to 100	1 to 10	> 100
CCc1c(F)ccc2cc(O)cc(-c3ncc4c(N5CCCOCC5)nc(OC[C@@]56CCCN5[C@H](COC(=O)N5CCC7(CC5)CC(N5CCC(c8ccc9c(c8)n(C)c(=O)n9C8CCC(=O)NC8=O)CC5)C7)CC6)nc4c3F)c12 (stereo partly drawn) [Compound 489, ((3S,7aS)-7a-(((7-(8-ethyl-7-fluoro-3-hydroxynaphthalen-1-yl)-8-fluoro-4-(1,4-oxazepan-4-yl)pyrido[4,3-d]pyrimidin-2-yl)oxy)methyl)hexahydro-1H-pyrrolizin-3-yl)methyl 2-(4-(1-(2,6-dioxopiperidin-3-yl)-3-methyl-2-oxo-2,3-dihydro-1H-benzo[d]imidazol-5-yl)piperidin-1-yl)-7-azaspiro[3.5]nonane-7-carboxylate]	< 100	–	< 10	< 1	–
CCc1c(F)ccc2cc(O)cc(-c3ncc4c(N5CCC[C@@](C)(O)C5)nc(OC[C@@]56CCCN5[C@H](COC(=O)N5CCC(CN7CCC(c8cccc9c8n(C)c(=O)n9C8CCC(=O)NC8=O)CC7)CC5)CC6)nc4c3F)c12 (stereo partly drawn) [Compound 440, ((3S,7aS)-7a-(((7-(8-ethyl-7-fluoro-3-hydroxynaphthalen-1-yl)-8-fluoro-4-((R)-3-hydroxy-3-methylpiperidin-1-yl)pyrido[4,3-d]pyrimidin-2-yl)oxy)methyl)hexahydro-1H-pyrrolizin-3-yl)methyl 4-((4-(1-(2,6-dioxopiperidin-3-yl)-3-methyl-2-oxo-2,3-dihydro-1H-benzo[d]imidazol-4-yl)piperidin-1-yl)methyl)piperidine-1-carboxylate]	< 100	–	< 10	1 to 10	–
CCc1c(F)ccc2cc(O)cc(-c3ncc4c(N5CCC[C@@](C)(O)C5)nc(OC[C@@]56CCCN5[C@H](COC(=O)N5CCC(C#CC7CCN(c8ccc9c(c8)n(C)c(=O)n9C8CCC(=O)NC8=O)CC7)CC5)CC6)nc4c3F)c12 (stereo partly drawn) [Compound 500, [(3S,7aS)-7a-({[7-(8-ethyl-7-fluoro-3-hydroxynaphthalen-1-yl)-8-fluoro-4-[(3R)-3-hydroxy-3-methylpiperidin-1-yl]pyrido[4,3-d]pyrimidin-2-yl]oxy}methyl)-hexahydropyrrolizin-3-yl]methyl 4-(2-{1-[1-(2,6-dioxopiperidin-3-yl)-3-methyl-2-oxo-1,3-benzodiazol-5-yl]piperidin-4-yl}ethynyl) piperidine-1-carboxylate]	< 100	–	< 10	< 1	–
CCc1c(F)ccc2cc(O)cc(-c3ncc4c(N5CCC[C@@](C)(O)C5)nc(OC[C@@]56CCCN5[C@H](COC(=O)N5CCC(OCCC#Cc7cccc8c7n(C)c(=O)n8C7CCC(=O)NC7=O)CC5)CC6)nc4c3F)c12 (stereo partly drawn) [Compound 370, ((3S,7aS)-7a-(((7-(8-Ethyl-7-fluoro-3-hydroxynaphthalen-1-yl)-8-fluoro-4-((R)-3-hydroxy-3-methylpiperidin-1-yl)pyrido[4,3-d]pyrimidin-2-yl)oxy)methyl)hexahydro-1H-pyrrolizin-3-yl)methyl4-((4-(1-(2,6-dioxopiperidin-3-yl)-3-methyl-2-oxo-2,3-dihydro-1H-benzo[d]imidazol-4-yl)but-3-yn-1-yl)oxy)piperidine-1-carboxylate]	< 100	–	< 10	1 to 10	–
C#Cc1c(F)ccc2cc(O)cc(-c3ncc4c(N5CCC[C@@](C)(O)C5)nc(OCC5(CN6CCC(N7CCC(c8cccc9c(C%10CCC(=O)NC%10=O)nn(C)c89)CC7)CC6)CC5)nc4c3F)c12 (stereo partly shown) [Compound 77]	< 100	–	< 10	1 to 10	–
CCc1c(F)ccc2cc(O)cc(-c3ncc4c(N5CCC[C@@](C)(O)C5)nc(OC[C@]56CCCN5[C@H](COC(=O)NC5CCCN(c7ccc8c(c7)n(C)c(=O)n8C7CCC(=O)NC7=O)C5)CC6)nc4c3F)c12 (stereo partly drawn) [Compound 309, ((3S,7aR)-7a-(((7-(8-ethyl-7-fluoro-3-hydroxynaphthalen-1-yl)-8-fluoro-4-((R)-3-hydroxy-3-methylpiperidin-1-yl)pyrido[4,3-d]pyrimidin-2-yl)oxy)methyl)hexahydro-1H-pyrrolizin-3-yl)methyl (1-(1-(2,6-dioxopiperidin-3-yl)-3-methyl-2-oxo-2,3-dihydro-1H-benzo[d]imidazol-5-yl)piperidin-3-yl)carbamate]	–	–	10 to 100	1 to 10	> 100
CCc1c(F)ccc2cc(O)cc(-c3ncc4c(N5CCN6CCCC6C5)nc(OC[C@@]56CCCN5[C@H](COC(=O)N5CCC7(CC5)CC(N5CCC(c8ccc9c(c8)n(C)c(=O)n9C8CCC(=O)NC8=O)CC5)C7)CC6)nc4c3F)c12 (stereo partly drawn) [Compound 345, ((3S,7aS)-7a-(((7-(8-ethyl-7-fluoro-3-hydroxynaphthalen-1-yl)-8-fluoro-4-(hexahydropyrrolo[1,2-a]pyrazin-2(1H)-yl)pyrido[4,3-d]pyrimidin-2-yl)oxy)methyl)hexahydro-1H-pyrrolizin-3-yl)methyl 2-(4-(1-(2,6-dioxopiperidin-3-yl)-3-methyl-2-oxo-2,3-dihydro-1H-benzo[d]imidazol-5-yl)piperidin-1-yl)-7-azaspiro[3.5]nonane-7-carboxylate]	–	–	> 100	1 to 10	> 100
